According to patent US4784992A, “Phosphorylalkanolamide derivatives of L-carnitine and pharmaceutical compositions containing same” (Sigma-Tau Industrie Farmaceutiche Riunite S.p.A., priority 1986, dated 1988):

Columns and labels:
[1] = tested on: erucic acid-induced myocardial steatosis; test: erucic acid-induced myocardial steatosis model in the rat (erucic acid-rich rape oil diet); format: in vivo, rat (male Wistar); conditions: for Cholesterol / ATP: n=6; for Cholesterol: controls 32.7 ±11.95; for ATP: controls 34.2 ±8.73
Excerpt: (§1) A myocardial steatosis model, in which an L-carnitine positive effect was already described, was used in the rat. The steatosis was induced by adding, for five (5) consecutive days, erucic acid-rich rape oil in the rats' normal daily diet, according to the method described by Branca et al. (Internat., Vit. Nutr. Res., 47, 162-166, 1977). Trial-groups of six (6) male Wistar rats, weighing from 190 g to 220 g, were used.
These effects were statistically significant with Student's t test.

lipid metabolism = test: restoring to normal any imbalance in the lipid metabolism / summary of the pharmacological trials; format: in vivo
Excerpt: as §1
The model of erucic acid-induced myocardial steatosis is used to compare the effect of the 14 day-administration of 250 and 125 mg/kg e.p. of L-carnitine with that of L-carnitine phosphorylethanolamide at the same doses for the same study period.
Moreover other tests were carried out using a model of olive-oil induced hyperlipemia in the rat. L-carnitine was administered at 250 and 125 mg/kg endoperitoneally for 14 days, as was L-carnitine phosphorylethanolamide at 250 and 125 mg/kg endoperitoneally for 14 days. The following parameters were evaluated:
Moreover it is efficacious in re-establishing the balance between fatty acids' oxidation and uptake, and in stimulating acetyl-CoA's oxidation in Kreb's cycle. Important to underline is that to these actions, another, of a more ubiquitary nature, must be added. […]

normal mouse's behaviour = test: Irwin's test in the mouse (normal mouse's behaviour); format: in vivo; conditions: 1000 mg/kg e.p.; 4 M + 4 F
Method: (§2) The effects of L-carnitine phosphorylethanolamide to Irwin's test in the mouse and acute toxicity after endoperitoneal administration of the substance, always in the mouse, were also evaluated.

[2] = acute toxicity in the mouse (mortality curve and LD50); format: in vivo; conditions: in vivo, ip; mouse, e.p.; 7 days observation
Method: as §2

mouse = test: as above; format: in vivo; conditions: 4 M + 4 F, 7 days observation
Method: as §2

[3] = solubility and appearance of the inner salt; format: physicochemical
Excerpt: A 20% aqueous solution of the calcium salt of L-carnitine phosphorylethanolamide was passed through AMBERLITE IR 120 activated with a 10% solution of hydrochloric acid. The eluate was neutralized with AMBERLITE IR 45 resin. The solution was then concentrated to dryness under vacuum. A white product crystallized which was taken up with warm ethanol.

[4] = 250 mg/kg endoperitoneally, 5 days, statistically significant (Student's t test)
[5] = Table 1, 250 mg/kg e.p., 5 days, P < 0.001

What does the source list for `C[N+](C)(C)C[C@H](O)CC(=O)[O-]` [L-carnitine]?
Triglycerides, change vs controls ([1]; Table 2, 250 mg/kg endoperitoneally for 5 days, P < 0.001): -60.1%; Cholesterol, change vs controls ([1]; Table 2, 250 mg/kg endoperitoneally for 5 days, n.s.): -34.5%; Cholesterol ([1]; Table 2, 250 mg/kg endoperitoneally for 5 days, spread of treated group ±7.01 on next line, n.s.): 24.7 mg/g of fresh tissue; ATP ([1]; Table 2, 250 mg/kg endoperitoneally for 5 days, spread of treated group ±20.28 on next line, P < 0.05): 57.3 nM/g proteines

Which ATP values [1, 4] does the source give for `C[N+](C)(C)CC(O)CC(=O)NCCOP(=O)([O-])O` [L-carnitine phosphorylethanolamide] here?
The ATP values was “brought back to normal the ATP values”.

What about the “accumulation of triglycerides in the myocardium” value [1, 4] of the same molecule?
Its value is “reduced the accumulation of triglycerides in the myocardium”.

And the cholesterol levels [1, 4]?
The cholesterol levels was “lowered the cholesterol levels”.

What about the “ATP, change vs controls” value [1, 5] of the same molecule?
Its value is “+76.9%”.

What about the “Triglycerides, change vs controls” value [1, 5] of the same molecule?
Its value is -47.9%.

What about the “Cholesterol, change vs controls” value ([1]; Table 1, 250 mg/kg e.p., 5 days, P < 0.01) of the same molecule?
Its value is -60.9%.

What about the Cholesterol ([1]; Table 1, 250 mg/kg e.p., 5 days, spread of treated group ±7.16 on next line, P < 0.01) of the same molecule?
The Cholesterol was 12.8 mg/g of fresh tissue.

What about the ATP ([1]; Table 1, 250 mg/kg e.p., 5 days, spread of treated group ±5.78 on next line, P < 0.001) of the same molecule?
Its ATP is 60.5 nM/g proteines.

What about the “normalization of myocardial hypertriglyceridemia and hyperlipemia, induced by erucic acid treatment” value (lipid metabolism) of the same molecule?
The value was “extremely active”.

What about the “re-establishing the balance between fatty acids' oxidation and uptake, and stimulating acetyl-CoA's oxidation in Kreb's cycle” value (lipid metabolism) of the same molecule?
Its value is “efficacious”.

And the Main effects observed (normal mouse's behaviour)?
Its Main effects observed is “apparently normal”.

And the LD50 at 168 h [2]?
Its LD50 at 168 h is > 8000 mg/kg.

What about the “N° of dead animals” value (mouse; 1000 mg/kg e.p.) of the same molecule?
Its value is 0.

And the “N° of dead animals” value (mouse; 2000 mg/kg e.p.)?
The value was 0.

What about the “N° of dead animals” value (mouse; 4000 mg/kg e.p.) of the same molecule?
The value was 0.

And the “N° of dead animals” value (mouse; 8000 mg/kg e.p.)?
The value was 0.

And the “solubility in most of the common organic solvents” value ([3]; common organic solvents)?
The value was “insoluble in most of the common organic solvents”.

What about the solubility ([3]; water and methanol at room temperature, warm ethanol) of the same molecule?
Its solubility is “Soluble in water and methanol at room temperature and in warm ethanol”.

What about the hygroscopicity ([3]; white, amorphous powder, inner salt) of the same molecule?
Its hygroscopicity is “hygroscopic”.
